Source: patent publication US20190367516A1 (Bayer Pharma Aktiengesellschaft, priority 2015, published 2019)

Target: T1, human M2 receptor (Homo sapiens, UniProt P08172)
T1 sequence (P08172 1-466): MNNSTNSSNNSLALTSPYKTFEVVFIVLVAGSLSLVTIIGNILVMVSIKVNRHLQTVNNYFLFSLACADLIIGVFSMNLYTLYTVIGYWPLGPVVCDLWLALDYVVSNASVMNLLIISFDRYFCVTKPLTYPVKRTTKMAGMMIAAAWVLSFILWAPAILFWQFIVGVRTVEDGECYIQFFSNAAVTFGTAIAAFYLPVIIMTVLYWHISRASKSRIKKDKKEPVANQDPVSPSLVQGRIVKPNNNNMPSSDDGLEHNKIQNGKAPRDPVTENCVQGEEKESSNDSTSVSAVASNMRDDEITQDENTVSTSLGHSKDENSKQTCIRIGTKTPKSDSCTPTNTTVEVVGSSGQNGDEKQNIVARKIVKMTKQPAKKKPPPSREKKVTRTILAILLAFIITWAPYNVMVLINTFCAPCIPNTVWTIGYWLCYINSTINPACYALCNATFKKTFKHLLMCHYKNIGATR
Conditions: Receptor activity EC50, M2-GIRK1/4 activation test, acetylcholine at EC20; allosteric potency; in some cases mean values from two or more determinations

Structure (SMILES) | EC50
CCC12CC3CC(C1)CC(NC(=O)c1cn(-c4ccc(F)cc4Cl)c4nc(N(C)C)ccc4c1=O)(C3)C2 [Example 157, 1-(2-Chloro-4-fluorophenyl)-7-(dimethylamino)-N-(3-ethyltricyclo[3.3.1.1^3,7]dec-1-yl)-4-oxo-1,4-dihydro-1,8-naphthyridine-3-carboxamide] | 67 nM
CC(C)Nc1ccc2c(=O)c(C(=O)NC34CC5CC(CC(C5)C3)C4)cn(-c3ccc(F)cc3F)c2n1 [Example 158, 1-(2,4-Difluorophenyl)-4-oxo-7-(propan-2-ylamino)-N-(tricyclo[3.3.1.1^3,7]dec-1-yl)-1,4-dihydro-1,8-naphthyridine-3-carboxamide] | 184 nM
CNc1ccc2c(=O)c(C(=O)NC34CC5CC(C3)CC(C(F)(F)F)(C5)C4)cn(-c3ccc(F)cc3F)c2n1 [Example 160, 1-(2,4-Difluorophenyl)-7-(methylamino)-4-oxo-N-[3-(trifluoromethyl)tricyclo[3.3.1.1^3,7]dec-1-yl]-1,4-dihydro-1,8-naphthyridine-3-carboxamide] | 85 nM
CNc1ccc2c(=O)c(C(=O)NC34CC5CC(C3)C(F)(F)C(C5)C4)cn(-c3ccc(F)cc3F)c2n1 [Example 161] | 137 nM
CNc1ccc2c(=O)c(C(=O)NC34CCC(CC3)CC4)cn(-c3ccc(F)cc3F)c2n1 [Example 162] | 38 nM
O=C(NC12CC3CC(CC(C3)C1)C2)c1cn(-c2ccc(F)cc2F)c2nc(N3CCCCC3=O)ccc2c1=O [Example 165, 1-(2,4-Difluorophenyl)-4-oxo-7-(2-oxopiperidin-1-yl)-N-(tricyclo[3.3.1.1^3,7]dec-1-yl)-1,4-dihydro-1,8-naphthyridine-3-carboxamide] | 11 nM
O=C(NC12CC3CC(CC(C3)C1)C2)c1cn(-c2ccc(F)cc2F)c2nc(N3CCCS3(=O)=O)ccc2c1=O [Example 167] | 47 nM
CN(c1ccc2c(=O)c(C(=O)NC34CC5CC(CC(C5)C3)C4)cn(-c3ccc(F)cc3F)c2n1)S(C)(=O)=O [Example 169] | 101 nM
O=C(NC12CC3CC(CC(C3)C1)C2)c1cn(-c2ccc(F)cc2F)c2nc(N3C[C@@H](O)CC3=O)ccc2c1=O [Example 170] | 19 nM
O=C(NC12CC3CC(CC(C3)C1)C2)c1cn(-c2ccc(F)cc2F)c2nc(N3CC(F)(F)CCC3=O)ccc2c1=O [Example 171] | 30 nM
O=C(NC12CC3CC(CC(C3)C1)C2)c1cn(-c2ccc(F)cc2F)c2nc(N3CCOCC3=O)ccc2c1=O [Example 172] | 83 nM
O=C(NC12CC3CC(CC(C3)C1)C2)c1cn(-c2ccc(F)cc2F)c2nc(N3CCC(O)CC3=O)ccc2c1=O (stereo not shown) [Example 173] | 88 nM
CC[C@@H](NC(=O)c1cn(-c2ccc(F)cc2F)c2nc(N3CCCCC3=O)ccc2c1=O)C(F)(F)F [Example 178] | 197 nM
CC(NC(=O)c1cn(-c2ccc(F)cc2F)c2nc(N3CCCC3=O)ccc2c1=O)C(F)(F)F (stereo not shown) [Example 179] | 169 nM

The next lines start with the values.

EC50 | Structure (SMILES)
115 nM | CCC(NC(=O)c1cn(-c2ccc(F)cc2F)c2nc(N3CCCS3(=O)=O)ccc2c1=O)C(F)(F)F (stereo not shown) [Example 180]
182 nM | O=C(NCc1c(Cl)cccc1Cl)c1cn(-c2ccc(F)cc2F)c2nc(N3CCCS3(=O)=O)ccc2c1=O [Example 182, N-(2,6-Dichlorobenzyl)-1-(2,4-difluorophenyl)-7-(1,1-dioxido-1,2-thiazolidin-2-yl)-4-oxo-1,4-dihydro-1,8-naphthyridine-3-carboxamide]
129 nM | CC(C)(NC(=O)c1cn(-c2ccc(F)cc2F)c2nc(N3CCNC3=O)ccc2c1=O)c1c(F)cccc1F [Example 184, 1-(2,4-Difluorophenyl)-N-[2-(2,6-difluorophenyl)propan-2-yl]-4-oxo-7-(2-oxoimidazolidin-1-yl)-1,4-dihydro-1,8-naphthyridine-3-carboxamide]
30 nM | O=C(NC12CC3CC(CC(C3)C1)C2)c1cn(-c2ccc(F)cc2F)c2nc(N3CCNC3=O)ccc2c1=O [Example 186, 1-(2,4-Difluorophenyl)-4-oxo-7-(2-oxoimidazolidin-1-yl)-N-(tricyclo[3.3.1.1^3,7]dec-1-yl)-1,4-dihydro-1,8-naphthyridine-3-carboxamide]
293 nM | CC[C@@H](NC(=O)c1cn(-c2ccc(F)cc2F)c2nc(N3CC(OC(=O)NC)CC3=O)ccc2c1=O)C(F)(F)F (stereo partly drawn) [Example 200, (3S)-1-[8-(2,4-Difluorophenyl)-5-oxo-6-{[(2R)-1,1,1-trifluorobutan-2-yl]carbamoyl}-5,8-dihydro-1,8-naphthyridin-2-yl]-5-oxopyrrolidin-3-yl methyl carbamate]
207 nM | CC(NC(=O)c1cn(-c2ccc(F)cc2F)c2nc(N3C[C@@H](O)CC3=O)ccc2c1=O)c1ccccc1F (stereo partly drawn) [Example 235, 1-(2,4-Difluorophenyl)-N-[1-(2-fluorophenyl)ethyl]-7-[(4S)-4-hydroxy-2-oxopyrrolidin-1-yl]-4-oxo-1,4-dihydro-1,8-naphthyridine-3-carboxamide]
860 nM | COCC(C)(NC(=O)c1cn(-c2ccc(F)cc2F)c2nc(N3C[C@@H](O)CC3=O)ccc2c1=O)C(F)(F)F (stereo partly drawn) [Example 236, 1-(2,4-Difluorophenyl)-7-[(4S)-4-hydroxy-2-oxopyrrolidin-1-yl]-4-oxo-N-[1,1,1-trifluoro-3-methoxy-2-methylpropan-2-yl]-1,4-dihydro-1,8-naphthyridine-3-carboxamide]
751 nM | O=C(NC1(C(F)(F)F)CCOCC1)c1cn(-c2ccc(F)cc2F)c2nc(N3C[C@@H](O)CC3=O)ccc2c1=O [Example 237, 1-(2,4-Difluorophenyl)-7-[(4S)-4-hydroxy-2-oxopyrrolidin-1-yl]-4-oxo-N-[4-(trifluoromethyl)tetrahydro-2H-pyran-4-yl]-1,4-dihydro-1,8-naphthyridine-3-carboxamide]
160 nM | O=C(NC(c1c(F)cccc1F)C(F)(F)F)c1cn(-c2ccc(F)cc2F)c2nc(N3CCCC(O)C3=O)ccc2c1=O (stereo not shown) [Example 247, 1-(2,4-Difluorophenyl)-N-[1-(2,6-difluorophenyl)-2,2,2-trifluoroethyl]-7-[3-hydroxy-2-oxopiperidin-1-yl]-4-oxo-1,4-dihydro-1,8-naphthyridine-3-carboxamide]
138 nM | CC[C@@H](NC(=O)c1cn(-c2ccc(F)cc2F)c2nc(N3C[C@@H](C(=O)OC)OC3=O)ccc2c1=O)C(F)(F)F [Example 257, Methyl (5S)-3-[8-(2,4-difluorophenyl)-5-oxo-6-{[(2R)-1,1,1-trifluorobutan-2-yl]carbamoyl}-5,8-dihydro-1,8-naphthyridin-2-yl]-2-oxo-1,3-oxazolidine-5-carboxylate]
74 nM | O=C(NC(c1ccccc1Cl)C(F)(F)F)c1cn(-c2ccc(F)cc2F)c2nc(N3CC[C@H](O)C3=O)ccc2c1=O (stereo partly drawn) [Example 298, N-[1-(2-Chlorophenyl)-2,2,2-trifluoroethyl]-1-(2,4-difluorophenyl)-7-[(3S)-3-hydroxy-2-oxopyrrolidin-1-yl]-4-oxo-1,4-dihydro-1,8-naphthyridine-3-carboxamide]
56 nM | O=C(NC(c1ccccc1Cl)C(F)(F)F)c1cn(-c2ccc(F)cc2F)c2nc(N3CC[C@@H](O)C3=O)ccc2c1=O (stereo partly drawn) [Example 299, N-[1-(2-Chlorophenyl)-2,2,2-trifluoroethyl]-1-(2,4-difluorophenyl)-7-[(3R)-3-hydroxy-2-oxopyrrolidin-1-yl]-4-oxo-1,4-dihydro-1,8-naphthyridine-3-carboxamide]
54 nM | O=C(NC(c1c(F)cccc1F)C(F)(F)F)c1cn(-c2ccc(F)cc2F)c2nc(N3CC[C@@H](O)C3=O)ccc2c1=O (stereo partly drawn) [Example 300, 1-(2,4-Difluorophenyl)-N-[1-(2,6-difluorophenyl)-2,2,2-trifluoroethyl]-7-[(3R)-3-hydroxy-2-oxopyrrolidin-1-yl]-4-oxo-1,4-dihydro-1,8-naphthyridine-3-carboxamide]
30 nM | CC[C@@H](NC(=O)c1cn(-c2c(F)cccc2Cl)c2nc(N3CC[C@@H](O)C3=O)ccc2c1=O)C(F)(F)F [Example 308, 1-(2-Chloro-6-fluorophenyl)-7-[(3R)-3-hydroxy-2-oxopyrrolidin-1-yl]-4-oxo-N-[(2R)-1,1,1-trifluorobutan-2-yl]-1,4-dihydro-1,8-naphthyridine-3-carboxamide]
40 nM | CC[C@@H](NC(=O)c1cn(-c2c(F)cccc2Cl)c2nc(N3CC[C@H](O)C3=O)ccc2c1=O)C(F)(F)F [Example 309, 1-(2-Chloro-6-fluorophenyl)-7-[(3S)-3-hydroxy-2-oxopyrrolidin-1-yl]-4-oxo-N-[(2R)-1,1,1-trifluorobutan-2-yl]-1,4-dihydro-1,8-naphthyridine-3-carboxamide]
43 nM | CC[C@@H](NC(=O)c1cn(-c2ccc(F)cc2F)c2nc(N3CCN(C)C3=O)ccc2c1=O)C(F)(F)F [Example 321, 1-(2,4-Difluorophenyl)-7-(3-methyl-2-oxoimidazolidin-1-yl)-4-oxo-N-[(2R)-1,1,1-trifluorobutan-2-yl]-1,4-dihydro-1,8-naphthyridine-3-carboxamide]
40 nM | C[C@@H](COC(F)(F)F)NC(=O)c1cn(-c2c(F)cc(F)cc2Cl)c2nc(N3C[C@@H](O)[C@H](O)C3)ccc2c1=O [Example 322, 1-(2-Chloro-4,6-difluorophenyl)-7-[(3R,4R)-3,4-dihydroxypyrrolidin-1-yl]-4-oxo-N-[(2S)-1-(trifluoromethoxy)propan-2-yl]-1,4-dihydro-1,8-naphthyridine-3-carboxamide]
